Test results reported in patent publication US8012980B2, “Isoquinolinone derivatives” (AstraZeneca AB, priority 2008, dated 2011).

What follows are compounds tested against T1, human active recombinant p38 (p38α) (Homo sapiens, UniProt Q16539) (assay: p38 Alpha Enzyme Assay (AlphaScreen, biotinylated-ATF2 substrate)). Conditions: means of replicate determinations; pre-incubated for 4 hours at 37° C.; SD of assay between 0.2 and 0.3 log units.
T1 construct: 6His
T1 sequence (Q16539 whole entry): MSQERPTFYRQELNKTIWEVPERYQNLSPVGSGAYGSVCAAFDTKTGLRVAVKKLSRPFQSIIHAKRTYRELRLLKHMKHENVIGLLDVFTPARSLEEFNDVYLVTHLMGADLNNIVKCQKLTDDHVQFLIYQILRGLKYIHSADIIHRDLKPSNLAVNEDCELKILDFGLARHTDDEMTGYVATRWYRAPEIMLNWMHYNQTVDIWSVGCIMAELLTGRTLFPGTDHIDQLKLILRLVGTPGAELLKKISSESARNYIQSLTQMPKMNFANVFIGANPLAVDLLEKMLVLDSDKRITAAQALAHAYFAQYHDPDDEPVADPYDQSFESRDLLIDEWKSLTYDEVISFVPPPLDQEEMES
Format: biochemical
Method: The ability of the compounds of formula (I) to inhibit p38 kinase may be determined using the following biological assay:
Enzyme assays were performed in polypropylene 96 well plates. The following solutions were added to each well; 10 μL of compound dilutions in assay buffer (20 mM HEPES pH 7.4, containing 20 mM magnesium acetate, 0.005% (w/v) Tween-20, 10 mM DTT) containing 1% (v/v) DMSO or assay buffer containing 1% (v/v) DMSO alone, 70 μL of assay buffer containing 36 nM substrate (biotinylated-ATF2) and 10 μL of an appropriate dilution of human active recombinant p38-6H is tagged. Depending on batch of p38, an appropriate dilution was typically a 5 nM solution to give a final enzyme concentration of 0.5 nM. At this stage, background control wells also received 50 μL of AlphaScreen quench buffer (10 mM HEPES pH 7.4 containing 100 mM EDTA, 0.2% (w/v) bovine serum albumin). The plate was covered, pre-incubated for 4 hours at 37° C. and the enzyme reaction initiated by addition of 10 μL 1 mM ATP. After incubation for a further 45 minutes at 37° C., the reaction was stopped by addition of 50 μL quench reagent and 50 μL of the quenched reaction mixture transferred to an opaque, white 96-well plate. Detection reagent, 25 μL of 10 mM HEPES pH 7.4 containing 100 mM EDTA, 0.2% (w/v) bovine serum albumin, 0.3 nM anti phosphoATF2 antibody and 25 μg/mL of AlphaScreen protein A acceptor and donor beads' (PerkinElmer Inc.), was added to all wells in a darkened room, the plate sealed and left in the dark for at least 5 hours before AlphaScreen readings were taken using a Perkin Elmer EnVision reader. Total, uninhibited activity was determined from assays performed in each assay plate. The mean control in the absence of p38 activity was subtracted from each well. Data were expressed as percent inhibition of total activity using equation 1. Percent Inhibition=100*(1−Test/Control) Eq.1 Where . . . Test=p38 kinase activity in the presence of compound Control=p38 kinase activity in the absence of compound.
pIC50 is defined as the logarithm of the reciprocal of the concentration of compound required for 50% reduction in total p38 kinase activity.
The standard deviation of the p38 enzyme inhibition assay is between 0.2 and 0.3 log units.
In the case of `Cc1c(F)cc(C(=O)NC2CC2)cc1-c1ccc2c(=O)n(CC(C)(C)CO)cc(CN3CCN[C@H](CO)C3)c2c1` [Example 17, N-Cyclopropyl-3-fluoro-5-(2-(3-hydroxy-2,2-dimethylpropyl)-4-(((3S)-3-(hydroxymethyl)piperazin-1-yl)methyl)-1-oxo-1,2-dihydroisoquinolin-6-yl)-4-methylbenzamide], the “p38α inhibition Mean pIC50” value is reported as 9.6.

Same assay, conditions: means of replicate determinations; pre-incubated for 4 hours at 37° C.; SD of assay between 0.2 and 0.3 log units; read-out: p38α inhibition Mean pIC50 (converted)
Work on `Cc1c(F)cc(C(=O)NC2CC2)cc1-c1ccc2c(=O)n(CC(C)(C)CO)cc(C(C)N3CCNCC3)c2c1` (racemic) [Example 38, N-Cyclopropyl-3-fluoro-5-[2-(3-hydroxy-2,2-dimethylpropyl)-1-oxo-4-(1-piperazin-1-ylethyl)-1,2-dihydroisoquinolin-6-yl]-4-methylbenzamide racemate] yielded an IC50 of 0.2 nM.
In the case of `Cc1c(F)cc(C(=O)NC2CC2)cc1-c1ccc2c(=O)n(CC(C)(C)CO)cc(C(C)N3CCNCC3)c2c1` (single isomer, unassigned) [Example 39, N-Cyclopropyl-3-fluoro-5-[2-(3-hydroxy-2,2-dimethylpropyl)-1-oxo-4-(1-piperazin-1-ylethyl)-1,2-dihydroisoquinolin-6-yl]-4-methylbenzamide], the IC50 is reported as 0.631 nM.
Compound `Cc1c(F)cc(C(=O)NC2CC2)cc1-c1ccc2c(=O)n(CC(C)(C)CO)cc(C(C)N3CCNCC3)c2c1` (single isomer, unassigned) [Example 40, N-Cyclopropyl-3-fluoro-5-[2-(3-hydroxy-2,2-dimethylpropyl)-1-oxo-4-(1-piperazin-1-ylethyl)-1,2-dihydroisoquinolin-6-yl]-4-methylbenzamide] has an IC50 of 0.0794 nM.
In the case of `Cc1c(F)cc(C(=O)NC2CC2)cc1-c1ccc2c(=O)n(CC(C)(C)CO)cc(CN3CCNCC3)c2c1` [Example 1, N-Cyclopropyl-3-fluoro-5-[2-(3-hydroxy-2,2-dimethylpropyl)-1-oxo-4-(piperazin-1-ylmethyl)-1,2-dihydroisoquinolin-6-yl]-4-methylbenzamide], the IC50 is reported as 0.126 nM.
For `Cc1c(F)cc(C(=O)NC2CC2)cc1-c1ccc2c(=O)n(CC(C)(C)CO)cc(CN3CCCN(C)CC3)c2c1` [Example 2, N-Cyclopropyl-3-fluoro-5-{2-(3-hydroxy-2,2-dimethylpropyl)-4-[(4-methyl-1,4-diazepan-1-yl)methyl]-1-oxo-1,2-dihydroisoquinolin-6-yl}-4-methylbenzamide], the IC50 was 0.251 nM.
Work on `Cc1c(F)cc(C(=O)NC2CC2)cc1-c1ccc2c(=O)n(CCCO)cc(CN3CCN[C@H](CO)C3)c2c1` [Example 3, N-Cyclopropyl-3-fluoro-5-(4-(((3S)-3-(hydroxymethyl)piperazin-1-yl)methyl)-2-(3-hydroxypropyl)-1-oxo-1,2-dihydroisoquinolin-6-yl)-4-methylbenzamide] yielded an IC50 of 0.158 nM.
Work on `Cc1c(F)cc(C(=O)NC2CC2)cc1-c1ccc2c(=O)n(CCCO)cc(CN3CCN[C@@H](C)C3)c2c1` [Example 4, N-Cyclopropyl-3-fluoro-5-(2-(3-hydroxypropyl)-4-(((3S)-3-methylpiperazin-1-yl)methyl)-1-oxo-1,2-dihydroisoquinolin-6-yl)-4-methylbenzamide] yielded an IC50 of 0.501 nM.
`Cc1c(F)cc(C(=O)NC2CC2)cc1-c1ccc2c(=O)n(CCO)cc(CN3CCNCC3)c2c1` [Example 5, N-Cyclopropyl-3-fluoro-5-(2-(2-hydroxyethyl)-1-oxo-4-(piperazin-1-ylmethyl)-1,2-dihydroisoquinolin-6-yl)-4-methylbenzamide] showed an IC50 of 0.2 nM.
`Cc1c(F)cc(C(=O)NC2CC2)cc1-c1ccc2c(=O)n(CCO)cc(CN3CCN[C@@H](C)C3)c2c1` [Example 6] was tested, and the IC50 was 1 nM.
Compound `Cc1c(F)cc(C(=O)NC2CC2)cc1-c1ccc2c(=O)n(CCO)cc(CN3CCCN(C)CC3)c2c1` [Example 7, N-Cyclopropyl-3-fluoro-5-(2-(2-hydroxyethyl)-4-((4-methyl-1,4-diazepan-1-yl)methyl)-1-oxo-1,2-dihydroisoquinolin-6-yl)-4-methylbenzamide] has an IC50 of 0.501 nM.
Work on `Cc1c(F)cc(C(=O)NC2CC2)cc1-c1ccc2c(=O)n(CCCCO)cc(CN3CCCN(C)CC3)c2c1` [Example 8, N-Cyclopropyl-3-fluoro-5-{2-(4-hydroxybutyl)-4-[(4-methyl-1,4-diazepan-1-yl)methyl]-1-oxo-1,2-dihydroisoquinolin-6-yl}-4-methylbenzamide] yielded an IC50 of 0.251 nM.
For `Cc1c(F)cc(C(=O)NC2CC2)cc1-c1ccc2c(=O)n(CC[C@H](C)O)cc(CN3CCNCC3)c2c1` [Example 9, N-Cyclopropyl-3-fluoro-5-{2-[(3S)-3-hydroxybutyl]-1-oxo-4-(piperazin-1-ylmethyl)-1,2-dihydroisoquinolin-6-yl}-4-methylbenzamide], the IC50 was 1.58 nM.
Compound `Cc1c(F)cc(C(=O)NC2CC2)cc1-c1ccc2c(=O)n(CCCO)cc(CN3CCNCC3)c2c1` [Example 10, N-Cyclopropyl-3-fluoro-5-[2-(3-hydroxypropyl)-1-oxo-4-(piperazin-1-ylmethyl)-1,2-dihydroisoquinolin-6-yl]-4-methylbenzamide] has an IC50 of 0.0794 nM.
`Cc1c(F)cc(C(=O)NC2CC2)cc1-c1ccc2c(=O)n(CC(C)(C)CO)cc(CN3CCN[C@@H](CO)C3)c2c1` [Example 11, N-Cyclopropyl-3-fluoro-5-(2-(3-hydroxy-2,2-dimethylpropyl)-4-(((3R)-3-(hydroxymethyl)piperazin-1-yl)methyl)-1-oxo-1,2-dihydroisoquinolin-6-yl)-4-methylbenzamide] gave an IC50 of 0.158 nM.
`Cc1c(F)cc(C(=O)NC2CC2)cc1-c1ccc2c(=O)n(CC3(CO)CC3)cc(CN3CCN[C@@H](CO)C3)c2c1` [Example 12, N-Cyclopropyl-3-fluoro-5-(2-((1-(hydroxymethyl)cyclopropyl)methyl)-4-(((3R)-3-(hydroxymethyl)piperazin-1-yl)methyl)-1-oxo-1,2-dihydroisoquinolin-6-yl)-4-methylbenzamide] gave an IC50 of 0.398 nM.
`COCCCn1cc(CN2CCN[C@@H](CO)C2)c2cc(-c3cc(C(=O)NC4CC4)cc(F)c3C)ccc2c1=O` [Example 13] gave an IC50 of 0.501 nM.
`Cc1c(F)cc(C(=O)NC2CC2)cc1-c1ccc2c(=O)n(CCC(C)(C)O)cc(CN3CCN[C@@H](CO)C3)c2c1` [Example 14, N-Cyclopropyl-3-fluoro-5-(2-(3-hydroxy-3-methylbutyl)-4-(((3R)-3-(hydroxymethyl)piperazin-1-yl)methyl)-1-oxo-1,2-dihydroisoquinolin-6-yl)-4-methylbenzamide] showed an IC50 of 0.501 nM.
With `Cc1c(F)cc(C(=O)NC2CC2)cc1-c1ccc2c(=O)n(CC3(CO)CC3)cc(CN3CCN[C@H](CO)C3)c2c1` [Example 15, N-Cyclopropyl-3-fluoro-5-(2-((1-(hydroxymethyl)cyclopropyl)methyl)-4-(((3S)-3-(hydroxymethyl)piperazin-1-yl)methyl)-1-oxo-1,2-dihydroisoquinolin-6-yl)-4-methylbenzamide] the IC50 was 0.501 nM.
In the case of `Cc1c(F)cc(C(=O)NC2CC2)cc1-c1ccc2c(=O)n(CC3(CO)CC3)cc(CN3CCNC[C@@H]3CO)c2c1` [Example 16, N-Cyclopropyl-3-fluoro-5-(2-((1-(hydroxymethyl)cyclopropyl)methyl)-4-(((2R)-2-(hydroxymethyl)piperazin-1-yl)methyl)-1-oxo-1,2-dihydroisoquinolin-6-yl)-4-methylbenzamide], the IC50 is reported as 0.251 nM.
Compound `Cc1c(F)cc(C(=O)NC2CC2)cc1-c1ccc2c(=O)n(C[C@H](C)CO)cc(CN3CCNCC3)c2c1` [Example 18, N-Cyclopropyl-3-fluoro-5-{2-[(2S)-3-hydroxy-2-methylpropyl]-1-oxo-4-(piperazin-1-ylmethyl)-1,2-dihydroisoquinolin-6-yl}-4-methylbenzamide] has an IC50 of 0.794 nM.
Work on `Cc1c(F)cc(C(=O)NC2CC2)cc1-c1ccc2c(=O)n(CC3(CO)CC3)cc(CN3CCNCC3)c2c1` [Example 19, N-Cyclopropyl-3-fluoro-5-[2-{[1-(hydroxymethyl)cyclopropyl]methyl}-1-oxo-4-(piperazin-1-ylmethyl)-1,2-dihydroisoquinolin-6-yl]-4-methylbenzamide] yielded an IC50 of 0.398 nM.
In the case of `Cc1c(F)cc(C(=O)NC2CC2)cc1-c1ccc2c(=O)n(C[C@@H](C)CO)cc(CN3CCNCC3)c2c1` [Example 20, N-Cyclopropyl-3-fluoro-5-{2-[(2R)-3-hydroxy-2-methylpropyl]-1-oxo-4-(piperazin-1-ylmethyl)-1,2-dihydroisoquinolin-6-yl}-4-methylbenzamide], the IC50 is reported as 0.794 nM.
Work on `Cc1c(F)cc(C(=O)NC2CC2)cc1-c1ccc2c(=O)n(CC(C)(C)CO)cc(CN3CCNC[C@H]3CO)c2c1` [Example 21, N-Cyclopropyl-3-fluoro-5-[2-(3-hydroxy-2,2-dimethylpropyl)-4-{[(2S)-2-(hydroxymethyl)piperazin-1-yl]methyl}-1-oxo-1,2-dihydroisoquinolin-6-yl]-4-methylbenzamide] yielded an IC50 of 0.251 nM.
